Measured values as given in patent publication US12715851B2, “4′-substituted analogues of fisetin and their use in the treatment of cancer” (Stellenbosch University, priority 2020, dated 2026).

Experiments:
[1] = system: H1299 human lung cancer cells; assay: Cell cycle distribution, propidium iodide flow cytometry; type: cell-based; details: H1299, 48 h
Method: (§1) To examine the effect of Fisetin analogues on cell cycle regulation, cells were treated with different concentrations of Fisetin analogues (5, 10 & 20 μM) for 48 h, then stained with propidium iodide and subjected to flow cytometry. All three of the tested Fisetin analogues induced G2/M phase cell cycle arrest in A549 (FIGS. 5A-5C) and H1299 human lung cancer cells (FIGS. 5D-5F).

A549 = assay: as above; type: cell-based, human; details: 48 h
Method: as §1

[2] = system: cytochrome b5 reductase (Cytb5R); assay: Hepatotoxicity: specific activity of cytochrome b5 reductase; type: in vivo, swiss albino mice; details: 50 mg/kg orally, two weeks
Method: (§2) Hepatotoxicity is considered to be one of the major challenges for drug development schemes. The liver is the primary organ for the metabolism or biotransformation of a given drug. To assess the hepatotoxicity of these compounds, the effects of Fisetin and analogue 3c on various hepatic enzymes was assessed.
(§3) A lipid peroxidation assay was performed on microsomal liver fraction and determined in terms of TBARS formation. […] The modulatory effects of Fisetin and analogue 3c were determined on the specific activities of cytochrome b5 reductase (Cytb5R) and cytochrome P450 reductase (CytP450R), phase I enzyme of xenobiotic metabolism. Fisetin and analogue 3c caused reduction in the specific activity of cytochrome b5 reductase. Fisetin decreased Cytb5R specific activity by 66% whereas analogue 3c (50 mg/kg) caused a 36% reduction in specific activity (FIG. 7F). An increase in specific activity of CytP450R by Fisetin and analogue 3c was observed. Fisetin and analogue 3c (50 mg/kg) increased the specific activity by 15% and 13%, respectively (FIG. 7G). Next, the specific activities of phase II enzymes, glutathione S-transferase (GST) and reduced glutathione (GSH) were measured. […] Fisetin and analogue 3c (50 mg/kg) caused a decrease in specific activity of GSH by 34% and 7%, respectively (FIG. 7I). […] These analogues are therefore likely to be effective and safe phytochemicals.

[3] = system: glutathione S-transferase (GST); assay: Hepatotoxicity: specific activity of glutathione S-transferase; type: in vivo, swiss albino mice; details: liver of treated mice
Method: as §2, §3

[4] = system: reduced glutathione (GSH); assay: Hepatotoxicity: reduced glutathione; type: in vivo, swiss albino mice; details: 50 mg/kg orally, two weeks
Method: as §2, §3

H1299 cells = assay: Western blot of signalling, cell cycle and apoptosis markers; type: cell-based, human
Source text: Similarly, in H1299 cells analogue 3a induced a 11.7 to 14.9% cell death (FIG. 4D right) compared to 3.8% in control cells. Analogue 3c (FIG. 4E right) and analogue 3e (FIG. 4F right) induced cell death of 8.2 to 15.1% and 8.8 to 16.6% respectively. For western blot experiments, two concentrations were used, i.e. the IC50 concentration and the next higher concentration utilized for cell proliferation for each cell line.
In H1299 cells (FIG. 4H), the higher concentrations of all three Fisetin analogues decreased the expression of pErk1/2. […]
The decreased expression of these proteins explains the decreased cell proliferation in both A549 and H1299 cells. […] Consistent with A549 data, all three the Fisetin analogues decreased the expression of anti-apoptotic protein Bcl-2 at both the concentrations. In H1299 cells, all the analogues increased cleaved Caspase-3 compared to control untreated cells. Thus, modulation of apoptosis regulatory proteins has caused apoptosis in both A549 and H1299 cells by the tested Fisetin analogues.

[5] = system: cytochrome P450 reductase (CytP450R); assay: Hepatotoxicity: specific activity of cytochrome P450 reductase; type: in vivo, swiss albino mice; details: 50 mg/kg orally, two weeks
Method: as §2, §3

O=c1c(O)c(-c2ccc(Br)cc2)oc2cc(O)ccc12 [analogue 3c, 4′-Bromo-3,7-dihydroxyflavone]
G2/M phase arrest ([1]; 5 μM): induced cell cycle arrest | G2/M phase arrest ([1]; 10 & 20 μM): induced G2/M phase arrest in both the cell lines significantly | G2/M phase arrest (A549; 5 μM): induced cell cycle arrest | G2/M phase arrest (A549; 10 & 20 μM): induced G2/M phase arrest in both the cell lines significantly | reduction in specific activity of cytochrome b5 reductase [2]: 36% | specific activities of GST compared to the control group [3]: did not cause significant change | decrease in specific activity of GSH [4]: 7% | Phospho-Cdc-2 expression (H1299 cells; IC50 concentration and 10 μM): higher concentration of analogue 3c and both concentrations of analogue 3e decreased the expression of phospho-Cdc-2 | Total Cdc-2 (H1299 cells; IC50 concentration and 10 μM): marginally affected by higher concentration | expression of Bax (H1299 cells; IC50 concentration and 10 μM): increased the expression of pro-apoptotic protein Bax | expression of Cyclin B1 (H1299 cells; IC50 concentration and 10 μM): decreased in all treatments, except for the lower concentration of analogue 3c | expression of phospho Akt (H1299 cells; IC50 concentration and 10 μM): completely undetected | expression of phospho-EGFR (H1299 cells; IC50 concentration and 10 μM): decreased the expression of both phospho and total EGFR | expression of total Akt (H1299 cells; IC50 concentration and 10 μM): completely undetected | expression of total EGFR (H1299 cells; IC50 concentration and 10 μM): decreased the expression of both phospho and total EGFR | expression of total Erk1/2 (H1299 cells; IC50 concentration and 10 μM): decreased the expression of total Erk1/2 significantly | expression of total Stat-3 (H1299 cells; higher concentration (10 μM)): decreased the expression of total Stat-3 at higher concentrations | increase in specific activity of CytP450R [5]: 13%
